Data on 4 molecules can be found in patent publication US20070184490A1, “Neuronal nicotinic receptor ligands and their use” (priority 2006, published 2007).

The Ki is a dissociation constant, usually derived from enzyme kinetics or from competition with a known ligand.

The target of experiment [1] is T1, α4β2 neuronal nicotinic receptor subtype (Rattus norvegicus, UniProt P09483+P12390).
T1 construct: Membrane enriched fractions from rat brain minus cerebellum; tissue ABS Inc., Wilmington, DE; host or cells: rat brain minus cerebellum, membrane enriched fractions
Nature of the experiment: [3H]-cytisine binding assay, rat brain membrane preparation. As to conditions: [3H]-cytisine binding site; read-out: binding affinity Ki. The procedure: The method can be accomplished under any suitable binding conditions. […] IC50 and Ki values can be determined from data obtained in the [^3H]-cytisine binding assay.
Binding conditions were modified from the procedures described in Pabreza L A, Dhawan, S, Kellar K J, [^3H]-Cytisine Binding to Nicotinic Cholinergic Receptors in Brain, Mol. Pharm. 39: 9-12, 1991. Membrane enriched fractions from rat brain minus cerebellum (ABS Inc., Wilmington, DE) were slowly thawed at 4° C., washed and resuspended in 30 volumes of BSS-Tris buffer (120 mM NaCl/5 mM KCI/2 mM CaCl2/2 mM MgCl2/50 mM Tris-Cl, pH 7.4, 4° C.). Samples containing 100-200 μg of protein and 0.75 nM [^3H]-cytisine (30 Ci/mmol; Perkin Elmer/NEN Life Science Products, Boston, MA) were incubated in a final volume of 500 μL for 75 minutes at 4° C. Seven log-dilution concentrations of each compound were tested in duplicate. Non-specific binding was determined in the presence of 10 μM (−)-nicotine. Bound radioactivity was isolated by vacuum filtration onto prewetted glass fiber filter plates (Millipore, Bedford, MA) using a 96-well filtration apparatus (Packard Instruments, Meriden, CT) and were then rapidly rinsed with 2 mL of ice-cold BSS buffer (120 mM NaCl/5 mM KCl/2 mM CaCl2/2 mM MgCl2). Packard MicroScint-20® scintillation cocktail (40 μL) was added to each well and radioactivity determined using a Packard TopCount® instrument. The IC50 values were determined by nonlinear regression in Microsoft Excel® software. Ki values were calculated from the IC50s using the Cheng-Prusoff equation, where Ki=IC50/1+[Ligand]/KD].

The next experiment relates to adults with ADHD. As to conditions: transdermal, 32 adults; cited from earlier work.

T1 sequence (P09483 31-630): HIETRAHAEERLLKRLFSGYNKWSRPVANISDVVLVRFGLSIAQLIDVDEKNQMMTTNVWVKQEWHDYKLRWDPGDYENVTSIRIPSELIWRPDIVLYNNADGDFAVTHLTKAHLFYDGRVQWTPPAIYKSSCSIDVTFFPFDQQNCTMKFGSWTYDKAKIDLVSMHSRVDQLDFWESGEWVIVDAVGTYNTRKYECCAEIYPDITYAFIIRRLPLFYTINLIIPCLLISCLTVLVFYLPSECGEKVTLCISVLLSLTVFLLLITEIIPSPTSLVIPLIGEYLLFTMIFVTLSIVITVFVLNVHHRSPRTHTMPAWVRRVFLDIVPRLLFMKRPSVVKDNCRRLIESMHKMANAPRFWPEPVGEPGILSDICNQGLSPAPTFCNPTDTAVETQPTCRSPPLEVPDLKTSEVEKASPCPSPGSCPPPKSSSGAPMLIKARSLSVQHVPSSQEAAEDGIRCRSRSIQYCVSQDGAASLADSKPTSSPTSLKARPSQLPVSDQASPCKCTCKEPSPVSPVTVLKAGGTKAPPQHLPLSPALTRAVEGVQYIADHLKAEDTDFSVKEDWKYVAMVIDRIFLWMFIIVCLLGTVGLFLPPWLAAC
T1 sequence (P12390 25-500): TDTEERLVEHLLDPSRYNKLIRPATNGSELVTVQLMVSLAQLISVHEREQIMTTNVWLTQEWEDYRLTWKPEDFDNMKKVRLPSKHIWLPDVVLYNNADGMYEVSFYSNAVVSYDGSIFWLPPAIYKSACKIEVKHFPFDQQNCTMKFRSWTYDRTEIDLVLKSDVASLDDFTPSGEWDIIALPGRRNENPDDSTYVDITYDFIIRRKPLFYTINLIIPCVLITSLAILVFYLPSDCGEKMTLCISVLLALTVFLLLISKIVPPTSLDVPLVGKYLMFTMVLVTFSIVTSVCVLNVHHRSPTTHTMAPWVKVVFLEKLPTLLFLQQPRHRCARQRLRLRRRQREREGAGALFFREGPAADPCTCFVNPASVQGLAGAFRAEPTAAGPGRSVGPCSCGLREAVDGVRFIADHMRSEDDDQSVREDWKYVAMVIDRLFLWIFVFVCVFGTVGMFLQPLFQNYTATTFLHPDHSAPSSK

In the case of `c1cncc(N2CC[C@@H]3CNC[C@@H]32)c1` [(R,R)-1-(pyridin-3-yl)-octahydro-pyrrolo[3,4-b]pyrrole], in experiment [1], the Ki was found to be 8.8 nM.
With `Cc1cc([C@@H]2CCCN2C)on1` [ABT-418], the “efficacy in treating ADHD” value with adults with ADHD was “effective in treating ADHD”.
As for `Clc1ccc(-c2cc(OC[C@@H]3CCCN3)cnc2Cl)cc1`, the Ki in experiment [1] was determined as 0.04 nM.
On the same count and under the same terms, next, `c1ccc2ncc(N3CC4CNCC4C3)cc2c1` (stereo not shown): 1.5 nM.
